According to US9604983B2, “Herbicidal 3-(2-benzyloxyphenyl)-2,4-dihydroxy-1,8-naphthyridine derivatives” (SYNGENTA LIMITED, priority 2013, dated 2017):

Legend:
Assay in all cases: Post-emergence efficacy, glasshouse pot test
Assay type in all cases: in vivo
Conditions in all cases: post-emergence application at 1000 g/ha; evaluated after 13 days; five point scale
[1] = system: Amaranthus retoflexus (AMARE)
Method: (§1) B1 Post-emergence Efficacy Seeds of a variety of test species are sown in standard soil in pots:—Solanum nigrum (SOLNI), Amaranthus retoflexus (AMARE), Setaria faberi (SETFA), Alopecurus myosuroides (ALOMY), Echinochloa crus-galli (ECHCG), Ipomoea hederacea (IPOHE). After 8 days cultivation (post-emergence) under controlled conditions in a glasshouse (at 24/16° C., day/night; 14 hours light; 65% humidity), the plants are sprayed with an aqueous spray solution derived from the formulation of the technical active ingredient in acetone/water (50:50) solution containing 0.5% Tween 20 (polyoxyethelyene sorbitan monolaurate, CAS RN 9005-64-5). Compounds are applied at 1000 g/ha. The test plants are then grown in a glasshouse under controlled conditions in a glasshouse (at 24/16° C., day/night; 14 hours light; 65% humidity) and watered twice daily. After 13 days, the test is evaluated for the percentage damage caused to the plant. The biological activities are shown below in Table 13, on a five point scale (5=80-100%; 4=60-79%; 3=40-59%; 2=20-39%; 1=0-19%).

[2] = system: Alopecurus myosuroides (ALOMY)
Method: as §1

[3] = system: Solanum nigrum (SOLNI)
Method: as §1

[4] = system: Echinochloa crus-galli (ECHCG)
Method: as §1

[5] = system: Ipomoea hederacea (IPOHE)
Method: as §1

[6] = system: Setaria faberi (SETFA)
Method: as §1

For `C#CCn1c(=O)c(-c2c(Cl)ccc(Cl)c2OCc2ccccc2)c(OC(=O)C(C)C)c2cccnc21` [Compound 1.001, [3-(2-Benzyloxy-3,6-dichloro-phenyl)-2-oxo-1-prop-2-ynyl-1,8-naph-thyridin-4-yl]2-methylpropanoate], the “percentage damage caused to the plant, AMARE” value [1] was 5 (5=80-100%), the “percentage damage caused to the plant, ALOMY” value [2] was 2 (2=20-39%) and the “percentage damage caused to the plant, SOLNI” value [3] was 5 (5=80-100%). For the same compound, the “percentage damage caused to the plant, ECHCG” value [4] was 4 (4=60-79%), the “percentage damage caused to the plant, IPOHE” value [5] was 5 (5=80-100%) and the “percentage damage caused to the plant, SETFA” value [6] was 4 (4=60-79%).

With `C#CCn1c(=O)c(-c2c(Cl)ccc(Cl)c2OCc2ccc(Cl)cc2)c(OC(=O)C(C)C)c2cccnc21` [Compound 1.003] the “percentage damage caused to the plant, AMARE” value [1] was 5 (5=80-100%), the “percentage damage caused to the plant, ALOMY” value [2] was 1 (1=0-19%) and the “percentage damage caused to the plant, SOLNI” value [3] was 5 (5=80-100%). The “percentage damage caused to the plant, ECHCG” value [4] was 4 (4=60-79%), the “percentage damage caused to the plant, IPOHE” value [5] was 5 (5=80-100%) and the “percentage damage caused to the plant, SETFA” value [6] was 3 (3=40-59%).

With `C#CCn1c(=O)c(-c2c(Cl)ccc(Cl)c2OCc2ccc(C)cc2)c(OC(=O)C(C)C)c2cccnc21` [Compound 1.004] the “percentage damage caused to the plant, AMARE” value [1] was 5 (5=80-100%), the “percentage damage caused to the plant, ALOMY” value [2] was 1 (1=0-19%) and the “percentage damage caused to the plant, SOLNI” value [3] was 5 (5=80-100%). The “percentage damage caused to the plant, ECHCG” value [4] was 3 (3=40-59%), the “percentage damage caused to the plant, IPOHE” value [5] was 3 (3=40-59%) and the “percentage damage caused to the plant, SETFA” value [6] was 1 (1=0-19%).

For `C#CCn1c(=O)c(-c2c(Cl)ccc(Cl)c2OCc2ccccc2)c(OC(=O)C(C)C)c2c(OC)ccnc21` [Compound 1.007], the “percentage damage caused to the plant, AMARE” value [1] was 4 (4=60-79%), the “percentage damage caused to the plant, ALOMY” value [2] was 1 (1=0-19%) and the “percentage damage caused to the plant, SOLNI” value [3] was 4 (4=60-79%). For the same compound, the “percentage damage caused to the plant, ECHCG” value [4] was 1 (1=0-19%), the “percentage damage caused to the plant, IPOHE” value [5] was 1 (1=0-19%) and the “percentage damage caused to the plant, SETFA” value [6] was 1 (1=0-19%).

With `C#CCn1c(=O)c(-c2c(Cl)ccc(Cl)c2OCc2ccccc2)c(OC(=O)C(C)C)c2nccnc21` [Compound 1.008] the “percentage damage caused to the plant, AMARE” value [1] was 5 (5=80-100%), the “percentage damage caused to the plant, ALOMY” value [2] was 5 (5=80-100%) and the “percentage damage caused to the plant, SOLNI” value [3] was 5 (5=80-100%). The “percentage damage caused to the plant, ECHCG” value [4] was 5 (5=80-100%), the “percentage damage caused to the plant, IPOHE” value [5] was 5 (5=80-100%) and the “percentage damage caused to the plant, SETFA” value [6] was 5 (5=80-100%).

With `C#CCn1c(=O)c(-c2c(Cl)ccc(Cl)c2OCc2ccccc2)c(O)c2cccnc21` [Compound 2.001, 3-(2-Benzyloxy-3,6-dichloro-phenyl)-4-hydroxy-1-prop-2-ynyl-1,8-naphthyridin-2-one] the “percentage damage caused to the plant, AMARE” value [1] was 5 (5=80-100%), the “percentage damage caused to the plant, ALOMY” value [2] was 5 (5=80-100%) and the “percentage damage caused to the plant, SOLNI” value [3] was 5 (5=80-100%). For the same compound, the “percentage damage caused to the plant, ECHCG” value [4] was 5 (5=80-100%), the “percentage damage caused to the plant, IPOHE” value [5] was 5 (5=80-100%) and the “percentage damage caused to the plant, SETFA” value [6] was 5 (5=80-100%).

`C#CCn1c(=O)c(-c2c(Cl)ccc(Cl)c2OCc2ccc(OC)cc2)c(O)c2cccnc21` [Compound 2.002] was tested, and the “percentage damage caused to the plant, AMARE” value [1] was 4 (4=60-79%), the “percentage damage caused to the plant, ALOMY” value [2] was 5 (5=80-100%) and the “percentage damage caused to the plant, SOLNI” value [3] was 5 (5=80-100%). The “percentage damage caused to the plant, ECHCG” value [4] was 5 (5=80-100%), the “percentage damage caused to the plant, IPOHE” value [5] was 5 (5=80-100%) and the “percentage damage caused to the plant, SETFA” value [6] was 5 (5=80-100%).

For `C#CCn1c(=O)c(-c2c(Cl)ccc(Cl)c2OCc2ccc(Cl)cc2)c(O)c2cccnc21` [Compound 2.003], the “percentage damage caused to the plant, AMARE” value [1] was 5 (5=80-100%), the “percentage damage caused to the plant, ALOMY” value [2] was 3 (3=40-59%) and the “percentage damage caused to the plant, SOLNI” value [3] was 5 (5=80-100%). For the same compound, the “percentage damage caused to the plant, ECHCG” value [4] was 5 (5=80-100%), the “percentage damage caused to the plant, IPOHE” value [5] was 5 (5=80-100%) and the “percentage damage caused to the plant, SETFA” value [6] was 4 (4=60-79%).

`C#CCn1c(=O)c(-c2c(Cl)ccc(Cl)c2OCc2ccc(C)cc2)c(O)c2cccnc21` [Compound 2.004] was tested, and the “percentage damage caused to the plant, AMARE” value [1] was 5 (5=80-100%), the “percentage damage caused to the plant, ALOMY” value [2] was 4 (4=60-79%) and the “percentage damage caused to the plant, SOLNI” value [3] was 5 (5=80-100%). For the same compound, the “percentage damage caused to the plant, ECHCG” value [4] was 4 (4=60-79%), the “percentage damage caused to the plant, IPOHE” value [5] was 5 (5=80-100%) and the “percentage damage caused to the plant, SETFA” value [6] was 4 (4=60-79%).

`C#CCn1c(=O)c(-c2c(Cl)ccc(Cl)c2OCc2ccc(C(F)(F)F)cc2)c(O)c2cccnc21` [Compound 2.006] was tested, and the “percentage damage caused to the plant, AMARE” value [1] was 5 (5=80-100%), the “percentage damage caused to the plant, ALOMY” value [2] was 4 (4=60-79%) and the “percentage damage caused to the plant, SOLNI” value [3] was 5 (5=80-100%). For the same compound, the “percentage damage caused to the plant, ECHCG” value [4] was 5 (5=80-100%), the “percentage damage caused to the plant, IPOHE” value [5] was 5 (5=80-100%) and the “percentage damage caused to the plant, SETFA” value [6] was 5 (5=80-100%).

In the case of `C#CCn1c(=O)c(-c2c(Cl)ccc(Cl)c2OCc2ccccc2)c(O)c2nccnc21` [Compound 2.008], the “percentage damage caused to the plant, AMARE” value [1] is reported as 5 (5=80-100%), the “percentage damage caused to the plant, ALOMY” value [2] is reported as 5 (5=80-100%) and the “percentage damage caused to the plant, SOLNI” value [3] is reported as 5 (5=80-100%). The “percentage damage caused to the plant, ECHCG” value [4] was 5 (5=80-100%), the “percentage damage caused to the plant, IPOHE” value [5] was 5 (5=80-100%) and the “percentage damage caused to the plant, SETFA” value [6] was 5 (5=80-100%).

In the case of `CC(C)C(=O)Oc1c(-c2c(Cl)ccc(Cl)c2OCc2ccccc2)c(=O)n(CC(F)F)c2ncccc12` [Compound 3.001], the “percentage damage caused to the plant, AMARE” value [1] is reported as 5 (5=80-100%), the “percentage damage caused to the plant, ALOMY” value [2] is reported as 2 (2=20-39%) and the “percentage damage caused to the plant, SOLNI” value [3] is reported as 5 (5=80-100%). For the same compound, the “percentage damage caused to the plant, ECHCG” value [4] was 2 (2=20-39%), the “percentage damage caused to the plant, IPOHE” value [5] was 5 (5=80-100%) and the “percentage damage caused to the plant, SETFA” value [6] was 1 (1=0-19%).

In the case of `CC(C)C(=O)Oc1c(-c2c(Cl)ccc(Cl)c2OCc2ccc(Cl)cc2)c(=O)n(CC(F)F)c2ncccc12` [Compound 3.003], the “percentage damage caused to the plant, AMARE” value [1] is reported as 5 (5=80-100%), the “percentage damage caused to the plant, ALOMY” value [2] is reported as 1 (1=0-19%) and the “percentage damage caused to the plant, SOLNI” value [3] is reported as 5 (5=80-100%). The “percentage damage caused to the plant, ECHCG” value [4] was 1 (1=0-19%), the “percentage damage caused to the plant, IPOHE” value [5] was 5 (5=80-100%) and the “percentage damage caused to the plant, SETFA” value [6] was 1 (1=0-19%).

With `Cc1ccc(COc2c(Cl)ccc(Cl)c2-c2c(OC(=O)C(C)C)c3cccnc3n(CC(F)F)c2=O)cc1` [Compound 3.004] the “percentage damage caused to the plant, AMARE” value [1] was 4 (4=60-79%), the “percentage damage caused to the plant, ALOMY” value [2] was 1 (1=0-19%) and the “percentage damage caused to the plant, SOLNI” value [3] was 5 (5=80-100%). For the same compound, the “percentage damage caused to the plant, ECHCG” value [4] was 1 (1=0-19%), the “percentage damage caused to the plant, IPOHE” value [5] was 5 (5=80-100%) and the “percentage damage caused to the plant, SETFA” value [6] was 1 (1=0-19%).
